Measured values reported in patent US20220323406A1, “METHODS AND COMPOSITIONS FOR DIFFERENTIATING STEM CELLS” (Massachusetts Institute of Technology, priority 2019, published 2022).

Legend:
[1] = test system: ENR+CD organoids (ISC to Paneth cell differentiation); experiment: Primary screen: basal (non-stimulated) lysozyme secretion LYZ.NS, 2.5-D 384-well ENR+CD organoid differentiation; type: cell-based, mouse
Description: (§1) High-throughput screening.

[2] = test system: ENR+CD organoids (ISC to Paneth cell differentiation); experiment: Primary screen: CCh-stimulated lysozyme secretion LYZ.S, 2.5-D 384-well ENR+CD organoid differentiation; type: cell-based, mouse; conditions: primary screen
Description: as §1

[3] = test system: ENR+CD organoids (ISC to Paneth cell differentiation); experiment: Secondary (validation) screen: LYZ.NS basal lysozyme secretion, 2.5-D 384-well ENR+CD organoids; type: cell-based, mouse; conditions: 6-day ENR+CD, vs ENR+CD+DMSO
Description: (§2) Drugs were tested at a narrowed dose range around each treatment's identified optimal dose from the primary screen (4× below, 2× above and below).
as §1
(§3) Secondary lysozyme secretion assay screen. Confirmatory secondary screening with primary hits was performed using the above 384-well plate method. The screen was conducted with 4-plate replicates with a base media of ENR+CD. Media was supplemented with compound at day 0 and day 3 (n=8 well replicates per dose) at four different doses: two-fold above, two-fold below, and four-fold below the optimal final dose for each respective treatment. Additionally, each plate carried a large number of ENR+DMSO or ENR+CD+DMSO (vehicle) control wells (n=100 for ATP, and n=25 for LYZ.NS and LYZ.S) for robust normalization. ATP, non-stimulated lysozyme activity and CCh-stimulated lysozyme activity was again measured and the collected data was again processed in a custom R-script, per primary screen with slight modification. Values were log10 transformed, and a plate-wise FC was calculated for each well based on the median value of ENR+CD+DMSO (vehicle) control wells to normalize plate to plate variability.

[4] = test system: ENR+CD organoids (ISC to Paneth cell differentiation); experiment: Secondary (validation) screen: LYZ.S CCh-stimulated lysozyme secretion, 2.5-D 384-well ENR+CD organoids; type: cell-based, mouse; conditions: 6-day ENR+CD, vs ENR+CD+DMSO
Description: as §2, §1, §3

ENR+CD organoids [5] = experiment: Secondary (validation) screen: ATP (CTG) assay, 2.5-D 384-well ENR+CD organoids; type: cell-based, mouse; conditions: 6-day ENR+CD, vs ENR+CD+DMSO
Description: as §2, §1, §3

ENR+CD organoids [6] = experiment: Primary screen: ATP (CellTiter-Glo 3D, CTG) cell number/viability, 2.5-D 384-well ENR+CD organoids; conditions: primary screen; for Z.CTG: standard z score;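 for all read-outs here: compounds given at plating and again on day 3 over a 6-day differentiation from ENR+CV stem-cell-enriched precursors, ATP measured on day 6, plate median as control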
[7] = dose 0.08 uM, FC relative to plate median
[8] = dose 0.40 uM, FC relative to plate median
[9] = dose 2.00 uM, FC relative to plate median
[10] = dose 10.00 uM, FC relative to plate median

## NC1(Cc2ccc(Cl)cc2)CCN(c2ncnc3[nH]ccc23)CC1 [CCT128930]
[1]; primary screen, dose 0.08 uM
  Dose.FC.LYZ.NS: 0.323 log2 fold change
[1]; primary screen, dose 0.40 uM
  Dose.FC.LYZ.NS: −0.018 log2 fold change
[1]; primary screen, dose 2.00 uM
  Dose.FC.LYZ.NS: 0.073 log2 fold change
[1]; primary screen, dose 10.00 uM
  Dose.FC.LYZ.NS: −0.150 log2 fold change
[1]; primary screen, standard z score, dose 0.08 uM
  Z.LYZ.NS: 2.811
[1]; primary screen, standard z score, dose 0.40 uM
  Z.LYZ.NS: −0.154
[1]; primary screen, standard z score, dose 2.00 uM
  Z.LYZ.NS: 0.633
[1]; primary screen, standard z score, dose 10.00 uM
  Z.LYZ.NS: −1.307
[2]; dose 0.08 uM
  Dose.FC.LYZ.S: 0.266 log2 fold change
[2]; dose 0.40 uM
  Dose.FC.LYZ.S: −0.007 log2 fold change
[2]; dose 2.00 uM
  Dose.FC.LYZ.S: 0.053 log2 fold change
[2]; dose 10.00 uM
  Dose.FC.LYZ.S: −0.201 log2 fold change
[3]; 0.02 uM
  Dose.FC.LYZ.NS: −0.241 log2 fold change
  Z.LYZ.NS: −1.927
  repSSMD.LYZ.NS: −2.551
[3]; 0.04 uM
  Dose.FC.LYZ.NS: −0.020 log2 fold change
  Z.LYZ.NS: −0.164
  repSSMD.LYZ.NS: −0.204
[3]; 0.08 uM
  Dose.FC.LYZ.NS: 0.031 log2 fold change
  Z.LYZ.NS: 0.248
  repSSMD.LYZ.NS: 0.366
[3]; […]
  Dose.FC.LYZ.NS: −0.160 log2 fold change
[4]; 0.02 uM
  Dose.FC.LYZ.S: −0.319 log2 fold change
  Z.LYZ.S: −2.445
  repSSMD.LYZ.S: −3.825
[4]; 0.04 uM
  Dose.FC.LYZ.S: −0.014 log2 fold change
  Z.LYZ.S: −0.108
  repSSMD.LYZ.S: −0.157
[4]; 0.08 uM
  Dose.FC.LYZ.S: 0.005 log2 fold change
  Z.LYZ.S: 0.041
  repSSMD.LYZ.S: 0.069
[4]; […]
  Dose.FC.LYZ.S: −0.217 log2 fold change
ENR+CD organoids [5]; 0.02 uM
  Dose.FC.CTG: −0.117 log2 fold change
  Z.CTG: −1.054
  repSSMD.CTG: −0.787
ENR+CD organoids [5]; 0.04 uM
  Dose.FC.CTG: 0.122 log2 fold change
  Z.CTG: 1.101
  repSSMD.CTG: 0.922
ENR+CD organoids [5]; 0.08 uM
  Dose.FC.CTG: 0.166 log2 fold change
  Z.CTG: 1.494
  repSSMD.CTG: 1.047
ENR+CD organoids [5]; […]
  Dose.FC.CTG: −0.088 log2 fold change
ENR+CD organoids [6]; dose 0.08 uM
  Dose.FC.CTG: 0.095 log2 fold change
  Z.CTG: 0.228
ENR+CD organoids [6]; dose 0.40 uM
  Dose.FC.CTG: −0.025 log2 fold change
  Z.CTG: −0.060
ENR+CD organoids [6]; dose 2.00 uM
  Dose.FC.CTG: 0.127 log2 fold change
  Z.CTG: 0.304
ENR+CD organoids [6]; dose 10.00 uM
  Dose.FC.CTG: −0.175 log2 fold change
  Z.CTG: −0.418

## N#CC[C@H](C1CCCC1)n1cc(-c2ncnc3[nH]ccc23)cn1 [Ruxolitinib (INCB018424), Ruxolitinib, reference compound]
[1]; primary screen, dose 0.08 uM, FC relative to plate median
  Dose.FC.LYZ.NS: 0.122 log2 fold change
[1]; primary screen, dose 0.08 uM, standard z score
  Z.LYZ.NS: 1.066
[1]; primary screen, dose 0.40 uM, FC relative to plate median
  Dose.FC.LYZ.NS: 0.070 log2 fold change
[1]; primary screen, dose 0.40 uM, standard z score
  Z.LYZ.NS: 0.611
[1]; primary screen, dose 2.00 uM, FC relative to plate median
  Dose.FC.LYZ.NS: 0.110 log2 fold change
[1]; primary screen, dose 2.00 uM, standard z score
  Z.LYZ.NS: 0.954
[1]; primary screen, dose 10.00 uM, FC relative to plate median
  Dose.FC.LYZ.NS: 0.295 log2 fold change
[1]; primary screen, dose 10.00 uM, standard z score
  Z.LYZ.NS: 2.569
[2]; [7]
  Dose.FC.LYZ.S: 0.150 log2 fold change
[2]; [8]
  Dose.FC.LYZ.S: 0.067 log2 fold change
[2]; [9]
  Dose.FC.LYZ.S: 0.105 log2 fold change
[2]; [10]
  Dose.FC.LYZ.S: 0.317 log2 fold change
[3]; 2.50 uM
  Dose.FC.LYZ.NS: −0.157 log2 fold change
[3]; 5.00 uM
  Dose.FC.LYZ.NS: −0.138 log2 fold change
[3]; 10.00 uM
  Dose.FC.LYZ.NS: −0.084 log2 fold change
[3]; 20.00 uM
  Dose.FC.LYZ.NS: 0.065 log2 fold change
[4]; 2.50 uM
  Dose.FC.LYZ.S: −0.182 log2 fold change
[4]; 5.00 uM
  Dose.FC.LYZ.S: −0.217 log2 fold change
[4]; 10.00 uM
  Dose.FC.LYZ.S: −0.168 log2 fold change
[4]; 20.00 uM
  Dose.FC.LYZ.S: 0.027 log2 fold change
ENR+CD organoids [5]; 2.50 uM
  Dose.FC.CTG: −0.014 log2 fold change
ENR+CD organoids [5]; 5.00 uM
  Dose.FC.CTG: −0.224 log2 fold change
ENR+CD organoids [5]; 10.00 uM
  Dose.FC.CTG: −0.153 log2 fold change
ENR+CD organoids [5]; 20.00 uM
  Dose.FC.CTG: 0.166 log2 fold change
ENR+CD organoids [6]; [7]
  Dose.FC.CTG: 0.458 log2 fold change
ENR+CD organoids [6]; [8]
  Dose.FC.CTG: 0.363 log2 fold change
ENR+CD organoids [6]; [9]
  Dose.FC.CTG: 0.445 log2 fold change
ENR+CD organoids [6]; [10]
  Dose.FC.CTG: 0.477 log2 fold change
